# Measured values: PubChem BioAssay AID1963982 (Molecular Pharmacology Branch, DTP, NCI, 2024)
# Tested on: 313798-341-R-J2-PDC spheroids, viability
# Assay: Anticancer human tumor 313798-341-R-J2-PDC patient-derived cervical squamous cell carcinoma cell line growth inhibition [PI3K]
# Conditions: spheroids with HUVEC and MSC; for IC50: curve of first compound; for viability, T/C: stronger effect = lower value
# Procedure, shortened: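 Three cell types, namely tumor cells, endothelial cells and mesenchymal stem cells, formed each spheroid. Combinations with four PI3K inhibitors were screened at clinically achievable concentrations decreasing by half-log, and spheroid viability was recorded.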
# [1] = second compound 0.0316 µM, first compound 0.0316 µM
# [2] = second compound 0.0316 µM, first compound 0.1 µM
# [3] = second compound 0.1 µM, first compound 0.0316 µM
# [4] = second compound 0.1 µM, first compound 0.1 µM
# [5] = second compound 0.316 µM, first compound 0.0316 µM
# [6] = second compound 0.316 µM, first compound 0.1 µM
# [7] = second compound 1 µM, first compound 0.0316 µM
# [8] = second compound 1 µM, first compound 0.1 µM
# [9] = second compound 3.16 µM, first compound 0.0316 µM
# [10] = second compound 3.16 µM, first compound 0.1 µM
# [11] = second compound 10 µM, first compound 0.0316 µM
# [12] = second compound 10 µM, first compound 0.1 µM
# 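Note: spheroids exposed to compounds for seven days.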
# 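Throughout, for viability, T/C: 100% = DMSO vehicle control viability.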
smiles,measurement,setting,value
CC(=O)c1c(C)c2cnc(Nc3ccc(N4CCNCC4)cn3)nc2n(C2CCCC2)c1=O + Cc1nc(NC(=O)N2CCCC2C(N)=O)sc1-c1ccnc(C(C)(C)C(F)(F)F)c1,IC50,second compound 0.0316 µM,> 0.1 µM
same,IC50,second compound 0.1 µM,> 0.1 µM
same,IC50,second compound 0.316 µM,> 0.1 µM
same,IC50,second compound 1 µM,> 0.1 µM
same,IC50,second compound 3.16 µM,> 0.1 µM
same,IC50,second compound 10 µM,< 0.000316 µM
same,"viability, T/C","second compound 0.0316 µM, first compound 0.000316 µM",105%
same,"viability, T/C","second compound 0.0316 µM, first compound 0.001 µM",96.5%
same,"viability, T/C","second compound 0.0316 µM, first compound 0.00316 µM",110%
same,"viability, T/C","second compound 0.0316 µM, first compound 0.01 µM",105%
same,"viability, T/C",[1],108%
same,"viability, T/C",[2],111%
same,"viability, T/C","second compound 0.1 µM, first compound 0.000316 µM",108%
same,"viability, T/C","second compound 0.1 µM, first compound 0.001 µM",99.1%
same,"viability, T/C","second compound 0.1 µM, first compound 0.00316 µM",107%
same,"viability, T/C","second compound 0.1 µM, first compound 0.01 µM",107%
same,"viability, T/C",[3],123%
same,"viability, T/C",[4],110%
same,"viability, T/C","second compound 0.316 µM, first compound 0.000316 µM",110%
same,"viability, T/C","second compound 0.316 µM, first compound 0.001 µM",101%
same,"viability, T/C","second compound 0.316 µM, first compound 0.00316 µM",96.3%
same,"viability, T/C","second compound 0.316 µM, first compound 0.01 µM",108%
same,"viability, T/C",[5],104%
same,"viability, T/C",[6],115%
same,"viability, T/C","second compound 1 µM, first compound 0.000316 µM",95.2%
same,"viability, T/C","second compound 1 µM, first compound 0.001 µM",98.1%
same,"viability, T/C","second compound 1 µM, first compound 0.00316 µM",96%
same,"viability, T/C","second compound 1 µM, first compound 0.01 µM",98.7%
same,"viability, T/C",[7],104%
same,"viability, T/C",[8],102%
same,"viability, T/C","second compound 3.16 µM, first compound 0.000316 µM",68.3%
same,"viability, T/C","second compound 3.16 µM, first compound 0.001 µM",58.9%
same,"viability, T/C","second compound 3.16 µM, first compound 0.00316 µM",71.8%
same,"viability, T/C","second compound 3.16 µM, first compound 0.01 µM",69.4%
same,"viability, T/C",[9],58.4%
same,"viability, T/C",[10],79%
same,"viability, T/C","second compound 10 µM, first compound 0.000316 µM",40.4%
same,"viability, T/C","second compound 10 µM, first compound 0.001 µM",41.7%
same,"viability, T/C","second compound 10 µM, first compound 0.00316 µM",39.5%
same,"viability, T/C","second compound 10 µM, first compound 0.01 µM",33%
same,"viability, T/C",[11],41.4%
same,"viability, T/C",[12],36.4%
CCCS(=O)(=O)Nc1ccc(F)c(C(=O)c2c[nH]c3ncc(-c4ccc(Cl)cc4)cc23)c1F + Cc1nc(NC(=O)N2CCCC2C(N)=O)sc1-c1ccnc(C(C)(C)C(F)(F)F)c1,IC50,second compound 0.0316 µM,5.85 µM
same,IC50,second compound 0.1 µM,5.6 µM
same,IC50,second compound 0.316 µM,5.65 µM
same,IC50,second compound 1 µM,4.52 µM
same,IC50,second compound 3.16 µM,3.14 µM
same,IC50,second compound 10 µM,< 0.0316 µM
same,"viability, T/C",[1],110%
same,"viability, T/C",[2],92%
same,"viability, T/C","second compound 0.0316 µM, first compound 0.316 µM",93.7%
same,"viability, T/C","second compound 0.0316 µM, first compound 1 µM",103%
same,"viability, T/C","second compound 0.0316 µM, first compound 3.16 µM",98%
same,"viability, T/C","second compound 0.0316 µM, first compound 10 µM",8.19%
same,"viability, T/C",[3],100%
same,"viability, T/C",[4],105%
same,"viability, T/C","second compound 0.1 µM, first compound 0.316 µM",98.7%
same,"viability, T/C","second compound 0.1 µM, first compound 1 µM",106%
same,"viability, T/C","second compound 0.1 µM, first compound 3.16 µM",90.7%
same,"viability, T/C","second compound 0.1 µM, first compound 10 µM",8.86%
same,"viability, T/C",[5],99.6%
same,"viability, T/C",[6],111%
same,"viability, T/C","second compound 0.316 µM, first compound 0.316 µM",90.8%
same,"viability, T/C","second compound 0.316 µM, first compound 1 µM",105%
same,"viability, T/C","second compound 0.316 µM, first compound 3.16 µM",89.6%
same,"viability, T/C","second compound 0.316 µM, first compound 10 µM",10.9%
same,"viability, T/C",[7],93.2%
same,"viability, T/C",[8],90.1%
same,"viability, T/C","second compound 1 µM, first compound 0.316 µM",88.7%
same,"viability, T/C","second compound 1 µM, first compound 1 µM",83.9%
same,"viability, T/C","second compound 1 µM, first compound 3.16 µM",70.7%
same,"viability, T/C","second compound 1 µM, first compound 10 µM",6.27%
same,"viability, T/C",[9],62%
same,"viability, T/C",[10],56.8%
same,"viability, T/C","second compound 3.16 µM, first compound 0.316 µM",56.5%
same,"viability, T/C","second compound 3.16 µM, first compound 1 µM",58.7%
same,"viability, T/C","second compound 3.16 µM, first compound 3.16 µM",49.8%
same,"viability, T/C","second compound 3.16 µM, first compound 10 µM",6.48%
same,"viability, T/C",[11],33.5%
same,"viability, T/C",[12],32.5%
same,"viability, T/C","second compound 10 µM, first compound 0.316 µM",38.7%
same,"viability, T/C","second compound 10 µM, first compound 1 µM",36.4%
same,"viability, T/C","second compound 10 µM, first compound 3.16 µM",31.2%
same,"viability, T/C","second compound 10 µM, first compound 10 µM",5.01%
